Experiments:
[1] = Molar ratio from neutralization of free organic acid with hydroxides; type: physicochemical; details: salt or chelate; listed as Quinic acid ammonium salt
Experimental: Determination of salts and chelates of some naturally occurring polyhydroxylated and polycarboxylated organic acids are provided in Table 1. Experimental molar ratios were calculated from neutralization to pH=7.5 of free protonated organic acid (H^+) with sodium, potassium or ammonium hydroxides.

serum protein thiols = assay: Serum protein thiols as in vivo anti-oxidant indicator; design: species or system human; details: for Increase in serum protein thiols (ratio): after to before (baseline)
Text: The following detailed description was designed to standardize the estimation of the in vivo level of serum protein thiols that have been used previously to estimate DNA repair capacity. When a blood sample is collected and the serum isolated, then the level of serum protein thiols is an estimate of the concentration between thiols and disulfides existing in protein structures that are in turn equilibrated to the existing oxidant environment in vivo. Thus, serum protein thiol analyses are an in vivo estimate of the antioxidant status of an individual that is in turn regulated by DNA repair.
A stock solution of the colorimetric agent 5,5′-dithio-bis-(2-nitrobenzoic acid (DTNB), was prepared using: 9.5 mg/ml solid DTNB, 0.1 M K2HPO4, and 17.5 mM EDTA. pH was adjusted to 7.5 and then diluted to desired volume. Working DTNB solution was prepared by diluting DTNB stock solution 1:50 with saline. Solutions of L-cysteine were prepared and a standard curve was constructed desirably be in the 0-100 μM range. Stock solutions were diluted as required and absorbance was measured using 96-well flat-bottom microtiter plate. 50 μL-cysteine solution with 200 μl working DTNB solution was placed per well. […]
A DTNB blank (50 μl saline+200 μl DTNB) was made. Absorbance values were made at 412 nm with a microtiter plate scanner spectrophotometer. The average of every concentration was calculated and DTNB blank was subtracted from every value. Using a plot of concentration (x-axis) vs. absorbance (y-axis) by comparison with standard cysteine solutions the cysteine concentration was determined.
A saturated ammonium sulfate solution was prepared. […] Absorbance in microtiter plate scanner set at 412 nm was measured making sure that bubbles in the well are avoided.
The average was calculated for the DTNB blank and the saline blank. […]
Then the corrected serum value was subtracted from the corrected sample value. This value was the final serum thiol value expressed as absorbance at […]. […]
Altogether this was a 20 fold dilution (4×5=20). […] Thiols were hereby measured in nmoles/0.72 ml.

SMILES: O=C(O)[C@]1(O)C[C@@H](O)[C@@H](O)[C@H](O)C1 [Aqua Bimini™, quinic acid ammonium chelate]
- Determination of structure existing in water [1]: chelate
- Increase in serum protein thiols (ratio) (serum protein thiols; 3000 mg/day for 36 days): 1.26
- Increase in serum protein thiols (ratio) (serum protein thiols; HL 1500 mg/day for 36 days): 1.22
- reduced thiols (—SH) in serum proteins (serum protein thiols; supplementation 1500 or 3000 mg/day, treatment and follow-up versus baseline): significant increase
